{"source": "paper PMC5080911", "about": "(Journal of medicinal chemistry, 2016)", "key": {"tubulin": {"tested_on": "tubulin", "experiment": "Tubulin polymerization assay", "settings": "for effect on tubulin polymerization / time to reach maximum/plateau of tubulin polymerization: 3 µM; for effect on tubulin polymerization: not irradiated; for time to reach maximum/plateau of tubulin polymerization: 37 °C, monitored 1 h; for tubulin polymerization effect of irradiated sample: sample irradiated with far-red light"}, "SKOV-3 cells": {"tested_on": "SKOV-3 cells", "experiment": "Stability of prodrugs with the SKOV-3 cells in the dark", "assay_type": "in vitro ADME", "settings": "500 nM, 3 day incubation with SKOV-3 cells"}, "[1]": {"experiment": "Stability of prodrugs in the complete medium under dark conditions", "assay_type": "physicochemical", "settings": "37 °C, 10 µM, 96 h"}, "[2]": {"assay_type": "physicochemical", "settings": "10 µM in DMEM with 5% FCS, 690 nm"}, "[3]": {"experiment": "Solubility in aqueous medium", "assay_type": "physicochemical", "settings": "qualitative"}, "[4]": {"settings": "5.6 mW/cm^2, illumination 30 min"}}, "note": "Read-outs that look alike come from different tables or passages of the source."}
{"smiles": "COc1ccc(/C=C\\c2cc(OC)c(OC)c(OC)c2)cc1O", "note": "[CA4, Combretastatin A-4, reference compound]", "values": [{"measurement": "effect on tubulin polymerization", "setting": "tubulin", "value": "almost completely prevented the polymerization"}]}
{"smiles": "CC(=O)O[C@H]1C(=O)[C@@]2(C)[C@H]([C@H](OC(=O)c3ccccc3)[C@]3(O)C[C@H](OC(=O)[C@H](O)[C@@H](NC(=O)c4ccccc4)c4ccccc4)C(C)=C1C3(C)C)[C@]1(OC(C)=O)CO[C@@H]1C[C@@H]2O", "note": "[PTX, Paclitaxel, reference compound]", "values": [{"measurement": "effect on tubulin polymerization", "setting": "tubulin", "value": "the tubulin polymerization was rapid"}]}
{"smiles": "CC(=O)O[C@H]1C(=O)[C@@]2(C)[C@H]([C@H](OC(=O)c3ccccc3)[C@]3(O)C[C@H](OC(=O)[C@H](OC(=O)/C=C/N4CCN(CCO[Si]5(OCCN6CCN(/C=C/C(=O)O[C@@H](C(=O)O[C@H]7C[C@@]8(O)[C@@H](OC(=O)c9ccccc9)[C@@H]9[C@]%10(OC(C)=O)CO[C@@H]%10C[C@H](O)[C@@]9(C)C(=O)[C@H](OC(C)=O)C(=C7C)C8(C)C)[C@@H](NC(=O)c7ccccc7)c7ccccc7)CC6)n6c7c8ccccc8c6/N=C6N=C(/N=c8/c9ccccc9/c(n85)=N/C5=NC(=N\\7)/c7ccccc75)c5ccccc5\\6)CC4)[C@@H](NC(=O)c4ccccc4)c4ccccc4)C(C)=C1C3(C)C)[C@]1(OC(C)=O)CO[C@@H]1C[C@@H]2O", "note": "[Compound 4]", "values": [{"measurement": "reduction of recovered prodrug (cells + culture medium)", "setting": "SKOV-3 cells", "value": 4.9, "unit": "%"}, {"measurement": "decrease (loss) of prodrug in complete medium", "setting": "[1]", "value": "less than 7%"}, {"measurement": "PTX released from the prodrug", "setting": "[2]; 5.6 mW/cm^2, illumination 10 min", "value": "about 83%"}, {"measurement": "PTX released from the prodrug", "setting": "[2]; [4]", "value": "~93", "unit": "%"}, {"measurement": "time to reach maximum/plateau of tubulin polymerization", "setting": "tubulin", "value": "~ 40 min"}, {"measurement": "tubulin polymerization effect of irradiated sample", "setting": "tubulin", "value": "significantly increased"}]}
{"smiles": "CC(=O)O[C@H]1C(=O)[C@@]2(C)[C@H](O)C[C@@H]3OC[C@]3(OC(C)=O)[C@@H]2[C@@H](OC(=O)c2ccccc2)[C@]2(O)C[C@@H](OC(=O)[C@@H](OC(=O)CCC(=O)N3CCN(CCO[Si]4(OCCN5CCN(C(=O)CCC(=O)O[C@@H](C(=O)O[C@@H]6C[C@@]7(O)[C@H](OC(=O)c8ccccc8)[C@H]8[C@@]9(OC(C)=O)CO[C@H]9C[C@@H](O)[C@]8(C)C(=O)[C@H](OC(C)=O)C(=C6C)C7(C)C)[C@H](NC(=O)c6ccccc6)c6ccccc6)CC5)n5c6c7ccccc7c5/N=C5N=C(/N=c7/c8ccccc8/c(n74)=N/C4=NC(=N\\6)/c6ccccc64)c4ccccc4\\5)CC3)[C@H](NC(=O)c3ccccc3)c3ccccc3)C(C)=C1C2(C)C", "note": "(stereo partly shown) [Compound 5]", "values": [{"measurement": "reduction of recovered prodrug (cells + culture medium)", "setting": "SKOV-3 cells", "value": 3.1, "unit": "%"}, {"measurement": "PTX released from the prodrug", "setting": "[2]; [4]", "value": "could not detect PTX"}, {"measurement": "solubility in aqueous medium", "setting": "[3]", "value": "lower solubility in aqueous medium than 4"}, {"measurement": "time to reach maximum/plateau of tubulin polymerization", "setting": "tubulin", "value": "~ 40 min"}, {"measurement": "tubulin polymerization effect of irradiated sample", "setting": "tubulin", "value": "not much change"}]}
